Reference: patent publication US6028061A, “Angiogenesis inhibitors and use thereof” (Children's Medical Center Corp, priority 1998, dated 2000)
“Also recorded” adds a separate entry of the source.

How the values were obtained:
[1] = molecular target: FGF-2; assay: Isothermal titration calorimetry of glycosaminoglycan binding to FGF-2; details: for Kd / n, average number of FGF-2 molecules occupying a single glycosaminoglycan chain (stoichiometry): 50 mM sodium phosphate pH 7.4, 100 mM NaCl, 25° C; for FGF-2 binding (in words): isothermal titration calorimetry
Description: Interaction of glycosaminoglycans and their derivatives with FGF-2. Isothermal titration calorimetry was performed in 50 mM sodium phosphate buffer, pH 7.4, containing 100 mM sodium chloride at 25° C. as previously described (15).
Determination of the FGF-2 binding affinity of glycosaminoglycans and their derivatives. Isothermal titration calorimetry was performed with heparin oligosaccharides, herapin, acharan sulfate and N-sulfoacharan sulfate. The heat of interaction (ΔH) is directly measured in this experiment. From this heat of interaction the Kd, and n (stoichiometry) of interaction can be deduced. The minimum FGF-2 binding site is a tetra- or hexasaccharide. […] The n value is consistent with the molecular weight of each ligand (Table 2).

[2] = system: FGF-2 mitogenic activity in F32 cells; assay: FGF-2 mitogenicity assay in F32 cells, presence of 10 ng/ml heparin ([3H]-thymidine incorporation; inhibition of heparin-mediated activity); type: cell-based; details: for FGF-2 mitogenicity in the presence of heparin (in words): 10 ng/ml heparin, 150 pM FGF-2, 40 h
Description: (§1) Assay of FGF-2 mitogenic activity, FGF-2 mitogenicity assays were performed in F32 cells that express FGF-receptor 1 (FGF-R1)(16) but no detectable levels of heparan sulfate proteoglycans (17). […] Tested glycosaminoglycans were added in concentrations ranging from 1-5000 ng/ml. Proliferation was measured after 40 h incubation in 200 μl medium (RPM1 1640, 10% heat-inactivated newborn calf serum) in the presence of a 1 μCi/well pulse of [^3 H]-thymidine during the final 6 h of the incubation. Radioactivity incorporated into DNA was quantified by scintillation counting, MTT, 3-[4,5-dimethylthiazol-2-yl]-2,5-diphenyl tetrazolium bromide (Thiazole blue), used to determine cell viability, was from Sigma Chemical (St. Louis, Mo.).
(§2) Influence of glycosaminoglycans and their derivatives on FGF-2 mitogenic activity. The direct influence of acharan sulfate and its derivative on FGF-2 mitogenic activity was measured in the absence of added heparin. […] The effect of acharan sulfate on cell viability was assessed by measuring the formation of a chromogen from MTT, a tetrazolium dye that is converted solely by living cells (18). […] Thus, the inhibition of mitogenicity is not due to toxicity leading to reduced cell number.

[3] = system: F32 cells; assay: MTT cell viability assay; type: cell-based; details: 40 h incubation, same concentrations as in the mitogenicity assays
Description: as §1, §2

[4] = system: FGF-2 mitogenic activity in F32 cells; assay: FGF-2 mitogenicity assay in F32 cells, absence of added heparin ([3H]-thymidine incorporation; stimulation of FGF-2 activity); type: cell-based; details: for [3H]-thymidine incorporation, controls alone: F32 cells, heparin (alone) and FGF-2 (alone) controls
Description: as §1, §2

[5] = system: FGF-2; details: cited from earlier work

Kd [1]	n, average number of FGF-2 molecules occupying a single glycosaminoglycan chain (stoichiometry) [1]	Substance	FGF-2 mitogenicity in the presence of heparin (in words) [2]	FGF-2 binding (in words) [1]	[3H]-thymidine incorporation, controls alone [4]	also measured
36 nM	3.6	Low molecular weight heparin [reference compound]				
36 nM		Heparin [reference compound]		bind FGF-2 most tightly	~ 750 cpm	mitogenic activity (literature, in words) [5]: known to enhance the activity of FGF-2
90 nM	4.4	→4)GlcNp2S(1→4)IdoAp2S(1→ [N-sulfoacharan sulfate]	no discernible effect on FGF-2 mitogenicity induced by heparin	bind FGF-2 most tightly; also recorded: tightly bound multiple FGF-2 molecules		FGF-2 mitogenic activity (in words) ([4]; absence of added heparin): about the same activity as the syndecan-1 ectodomain; also recorded: minimal mitogenic activity compared with that of heparin; activity relative to heparin, fold less active ([4]; absence of added heparin, on a weight basis): about 150 fold; FGF-2 mitogenicity in the presence of heparin (in words) ([2]; listed as N-sulfoacharan): failed to further stimulate FGF-2 mitogenicity

Further lines, the substance ahead of its results:

Substance	Kd [1]	n, average number of FGF-2 molecules occupying a single glycosaminoglycan chain (stoichiometry) [1]	FGF-2 mitogenicity in the presence of heparin (in words) [2]	FGF-2 binding (in words) [1]	[3H]-thymidine incorporation, controls alone [4]	also measured
ΔUAp2S(1→[4)GlcNp2S6S(1→4)IdoAp2S(→]m=1-5) [dodecasaccharide, reference compound]		1.8				
→4)GlcNpAc(1→4)IdoAp2S(1→ [Acharan sulfate]	4500 nM	13.4	markedly decreased the mitogenic activity in a concentration dependent manner; also recorded: inhibited FGF-2 mitogenicity in the presence of heparin	binds very poorly; also recorded: very weak		IC50 of inhibition of FGF-2 mitogenicity ([2]; in the presence of 10 ng/ml heparin): ~ 400 ng/ml; cell viability (number of living cells, MTT) [3]: no reduction in the number of living cells; Kd ([1]; listed as acharan sulfate): > 4000 nM
FGF-2: growth factor, control alone in F32 mitogenicity assay					~ 750 cpm	
